Assay results published in PubChem BioAssay (NCI).
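1) Cells in 96-well plates. 2) Compound, 48 h, 5 concentrations. 3) Linear interpolation between surrounding doses. 4) Unreached endpoint = highest concentration. TGI: concentration producing complete growth inhibition.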

Experiments:
Test in all cases: NCI anticancer screen, dose series, 48 h
[1] = test system: IGROV1 ovarian
[2] = test system: PC-3 prostate
[3] = test system: HCC-2998 colon
[4] = test system: OVCAR-5 ovarian
[5] = test system: SK-MEL-5 melanoma
[6] = test system: SNB-19 CNS
[7] = test system: M14 melanoma
[8] = test system: NCI-H460 lung
[9] = test system: U251 CNS
[10] = test system: SR leukemia
[11] = test system: RXF 393 renal
[12] = test system: 786-0 renal
[13] = test system: HT29 colon
[14] = test system: A549 NSCLC
[15] = test system: UO-31 renal
[16] = test system: SF-268 CNS
[17] = test system: MALME-3M melanoma
[18] = test system: OVCAR-3 ovarian
[19] = test system: A498 renal
[20] = test system: MDA-MB-231 breast
[21] = test system: SK-MEL-28 melanoma
[22] = test system: ACHN renal
[23] = test system: HCT-116 colon
[24] = test system: OVCAR-4 ovarian
[25] = test system: KM12 colon
[26] = test system: HS 578T breast
[27] = test system: K-562 leukemia
[28] = test system: SNB-75 CNS
[29] = test system: DU-145 prostate
[30] = test system: CCRF-CEM leukemia
[31] = test system: SN12C renal
[32] = test system: SF-539 CNS
[33] = test system: SW-620 colon
[34] = test system: SK-OV-3 ovarian
[35] = test system: HOP-92 NSCLC
[36] = test system: MOLT-4 leukemia
[37] = test system: RPMI-8226 leukemia
[38] = test system: NCI/ADR-RES ovarian
[39] = test system: COLO 205 colon
[40] = test system: HL-60(TB) leukemia
[41] = test system: HOP-62 NSCLC
[42] = test system: EKVX NSCLC
[43] = test system: MCF7 breast
[44] = test system: MDA-MB-435
[45] = test system: HCT-15 colon
[46] = test system: UACC-257 melanoma
[47] = test system: UACC-62 melanoma
[48] = test system: LOX IMVI melanoma
[49] = test system: T-47D breast
[50] = test system: NCI-H23 lung
[51] = test system: BT-549 breast
[52] = test system: OVCAR-8 ovarian
[53] = test system: NCI-H226 lung
[54] = test system: SF-295 CNS
[55] = test system: NCI-H522 lung
[56] = test system: MDA-N
[57] = test system: TK-10 renal

Cc1cccc2c1CC1(Cc3ccccc3C1=O)C2=O (configuration not stated)
TGI [1]: > 100 µM
TGI [2]: > 100 µM
TGI [3]: > 100 µM
TGI [4]: > 100 µM
TGI [5]: > 100 µM
TGI [6]: > 100 µM
TGI [7]: > 100 µM
TGI [8]: > 100 µM
TGI [9]: > 100 µM
TGI [10]: > 100 µM
TGI [11]: > 100 µM
TGI [12]: > 100 µM
TGI [13]: > 100 µM
TGI [14]: > 100 µM
TGI [15]: > 100 µM
TGI [16]: > 100 µM
TGI [17]: > 100 µM
TGI [18]: > 100 µM
TGI [19]: > 100 µM
TGI [20]: > 100 µM
TGI [21]: > 100 µM
TGI [22]: > 100 µM
TGI [23]: > 100 µM
TGI [24]: > 100 µM
TGI [25]: > 100 µM
TGI [26]: > 100 µM
TGI [27]: > 100 µM
TGI [28]: > 100 µM
TGI [29]: > 100 µM
TGI [30]: > 100 µM
TGI [31]: > 100 µM
TGI [32]: > 100 µM
TGI [33]: > 100 µM
TGI [34]: 99.6 µM
TGI [35]: > 100 µM
TGI [36]: > 100 µM
TGI [37]: > 100 µM
TGI [38]: > 100 µM
TGI [39]: > 100 µM
TGI [40]: > 100 µM
TGI [41]: > 100 µM
TGI [42]: > 100 µM
TGI [43]: > 100 µM
TGI [44]: > 100 µM
TGI [45]: > 100 µM
TGI [46]: > 100 µM
TGI [47]: > 100 µM
TGI [48]: > 100 µM
TGI [49]: > 100 µM
TGI [50]: > 100 µM
TGI [51]: 80.6 µM
TGI [52]: > 100 µM
TGI [53]: > 100 µM
TGI [54]: > 100 µM
TGI [55]: > 100 µM
TGI [56]: > 100 µM
TGI [57]: > 100 µM
